Experimental data: patent US20250387481A1, “PRE-TREATED T CELLS FOR USE AS A MEDICAMENT” (STICHTING HET NEDERLANDS KANKER INSTITUUT-ANTONI VAN …, priority 2022, published 2025)

Tested on: MMTV-PyMT tumors
Test: Drug treatment in vivo of mice bearing MMTV-PyMT tumors
Design: species or system mouse
Description: For tumor generation, tumor organoids were transplanted into the 4th mammary fat pad of FVB female mice. Rimadyl (0.067 mg/ml, Zoetis) was administered to mice in the drinking water from 24 h before surgery and for 48 h after surgery. Mice were also treated with temgesic (0.1 mg/kg, Indivior Europe Limited), 1 hr before and 12 h after surgery. Mice were anesthetized with isoflurane (2%, v/v) and their eyes were covered with duratears (Alcon). About 100,000 single cells derived from KB1P organoids or 200,000 single cells derived from MMTV-PyMT organoids were injected in 30 μl of BME (Amsbio, Cat. No. 3533-005-02). Mice were weighed and monitored three times a week after transplantation of tumor organoids. Tumor volume was measured with calipers three times weekly. The researcher performing the measurement of tumor volume was blinded to the treatment group. For survival experiments, endpoint was reached when tumor reached 2000 mm3. For specific experiments, reference is made to the schematic representations of treatment timelines depicted in the figures.
Once tumors were established and reached a size of ˜7×7 mm, mice were randomized into treatment groups with the following drug dosages and timeline: • AC+T treatment: every 14 days, cyclophosphamide (144 mg/kg, administered via intraperitoneal injection), doxorubicin (5 mg/kg, administered via intravenous injection) and docetaxel (25 mg/kg, resuspended in acetonitrile containing 0.1% acetic acid, administered via intravenous injection). Doxorubicin hydrochloride (Adriamycin) and cyclophosphamide (C), when combined in a treatment, are herein referred to as “AC”. Taxanes, as broadly described and disclosed herein, are referred to as “T”. […]

CC(=O)O[C@@]12CO[C@@H]1C[C@H](O)[C@@]1(C)C(=O)[C@H](O)C3=C(C)[C@@H](OC(=O)[C@H](O)[C@@H](NC(=O)OC(C)(C)C)c4ccccc4)C[C@@](O)([C@@H](OC(=O)c4ccccc4)[C@H]21)C3(C)C [docetaxel]
anti-tumor effects of docetaxel (survival) upon T cell depletion (depletion of CD4 alone, CD8 alone or both): abrogated the anti-tumor effects | tumor outgrowth (docetaxel 25 mg/kg intravenous every 14 days vs vehicle): delayed tumor outgrowth | accumulation of mitotic figures in tumors (tumors isolated 24 h after the second docetaxel administration): did not observe an accumulation of mitotic figures
